Results on 2 substances are retold here after paper PMC12775124, “CUL4A-DDB1-DCAF10 is an N-recognin for N-terminally acetylated Src kinases” (Nature Communications, 2026).

The subject of assay [1] is DCAF10. Briefly: Peptide pull-down with quantitative MS, mouse liver lysate, DCAF10. It is filed as binding.
Description: Biotinylated 10-mer Nt-peptides (Nt-free, Nt-acetylated, and, where indicated, Nt-myristoylated; sequences in Supplementary Table 1) were synthesized with a C-terminal Lys3 spacer and biotin, immobilized on magnetic streptavidin beads, and incubated with HeLa or mouse liver lysates. After standardized washes, bound proteins were on-bead reduced/alkylated, digested with LysC/trypsin, desalted, and analysed by LC-MS in DIA mode (Orbitrap Exploris 480) as described previously[24]. Variants included endogenous Nt-sequences, swap and mutant (Ala-Ala-Ala or Nt-amino acids) peptides, and pairwise comparisons of conditions of interest.
Briefly, magnetic streptavidin beads (DynabeadsTM
Beads were then washed three times with PBS.
210 washing, 1 mg of HeLa lysates or 2 mg of liver lysates was taken, and lysis buffer (75
Lysates were incubated with streptavidin
HeLa pull-downs were washed twice with lysis buffer and twice
Liver pulldowns were washed twice with cold low salt buffer (50 mM
220 individually ventilated cages under a 12-h light/dark cycle and were provided with sterile
No animal procedures were performed specifically for this
230 of 1:100), and desalted/concentrated on C18 reversed phase stage tips as previously
(§1) 526 Mass spectrometry measurements and raw file processing
527 Samples (peptide pull-downs, IPs and high-pH fractionations) were separated on an […]
For another assay, the system named is CUL4A-DDB1-DCAF10. Put plainly: In vitro ubiquitination of Lyn-GFP variants by CUL4A-DDB1-DCAF10. It is filed as biochemical, human. Particulars: for Increase of in vitro ubiquitination under NMT1/2 siRNA: WT E3 complex, IP from NMT1/2 siRNA vs control DLD-1 cells. From the text: Lyn^WT-GFP was ubiquitinated by the WT E3 complex in both conditions; however, unlike in vitro ubiquitination with endogenous Lyn (Fig. 5c, d), ubiquitination increased ~6-fold under NMT1/2 siRNA conditions. This is consistent with DCAF10 being limiting and overexpressed Lyn-GFP, accumulating an acetylated fraction available for DCAF10 in vitro. Then, we performed IPs for all Nt variants under NMT1/2 siRNA conditions (Fig. 6d, h–i). […] In vitro ubiquitination assays using untreated cell lysates led to similar results (Supplementary Fig. 7h, i).
Reactions contained E1, UBCH5B (E2), ubiquitin, Mg-ATP in ligation buffer and were incubated with bead-bound substrates, followed by washing and immunoblot detection of ubiquitinated species (anti-ubiquitin), with loading controls (anti-Lyn, -Fyn, -Src or -GFP) (n = 3 independent enzymatic assays). Complete reagent lists, complex preparation, substrate IP conditions, wash buffers, and gel/blot parameters are provided in the Supplementary Methods and Tables.
357 (v/v) glycerol, 2 mM TCEP, supplemented with Protease Inhibitor Cocktail), and lysed
358 by sonication. Lysates were cleared by centrifugation at 28,000 rpm for 45 min at 4 °C
359 using a JA-30.50 rotor (Beckman Coulter, Brea, CA, USA). The cleared and filtered (0.8
360 µm) lysate was applied to 1 mL of Strep-Tactin®XT 4Flow® resin (iba), pre-equilibrated
361 once with wash buffer (100 mM Tris-HCl pH 8.0, 150 mM NaCl, 1 mM EDTA) and lysis
362 buffer. The lysate was incubated on a tube roller for 16 h at 4 °C. After incubation, beads
363 were washed with 50 mL of lysis buffer. Bound proteins were eluted with 10 mL of lysis
364 buffer supplemented with 50 mM biotin, after 15 min incubation on a tube roller at 4 °C.
366 Superdex 200 10/300 or 16/60 SEC column (GE Healthcare, Chicago, IL, USA),
367 preequilibrated in SEC buffer (250 mM Tris pH 7.5, 250 mM NaCl, 10% (v/v) glycerol,
370 Purified proteins were visualized during and after the purification by SDS-gels containing
371 TCE (2,2,2-trichloroethanol)62. The identity of proteins was confirmed by WB and MS.
373 In vitro ubiquitination assays
374 The in vitro ubiquitination assays were performed as previously described8. In brief,
375 E1 (50 nM), UBCH5B (250 nM), ubiquitin (1.5 µg), Mg-ATP (3 mM), ligation buffer,
376 and water were pre-mixed. The premix was divided, and either CUL4A-RBX1-
378 RBX1DDB1 (-DCAF10) (250 nM each) was added. 15 μL of each premix were incubated
379 with substrates (endogenous Lyn or Lyn-GFP constructs) bound to beads for 1 h at 30°C
380 with shaking. Samples were then washed four to five times with a buffer containing 50 […]
382 EDTA, and loaded on a gradient gel (4–15%). Ubiquitination of substrates was assessed
383 by WB using an anti-ubiquitin antibody. Equal substrate loading was evaluated by anti- […]

Assay [2] concerns DCAF10. Briefly: Anti-GFP immunoprecipitation of Lyn-GFP with MS, DCAF10. Conditions: anti-GFP IP, NMT1/2 siRNA and control. It is filed as binding, human.
Description: 494 induction using GFP-Trap magnetic agarose beads. Briefly, 10 µL of bead slurry per
495 reaction was equilibrated three times with ice-cold lysis buffer (75 mM HEPES pH 7.5,
497 supplemented with 1mM DTT, PhosSTOP, and Protease Inhibitor Cocktail). Then, 500
498 µL of each lysate sample (control, dox induction, and NMT1/2 knockdown with or
499 without dox induction) containing approximately 300 µg total protein, were added to
500 tubes containing the equilibrated beads. Samples were rotated end-over-end for 1.5–2 h
After incubation, the beads were washed twice with 500 µL of cold lysis buffer
502 and twice with 500 µL of cold lysis buffer lacking NP-40, glycerol, DTT, phosSTOP, and
503 Protease Inhibitor Cocktail. Finally, the immunoprecipitates were resuspended in 50 µL
504 of 8 M urea, incubated at 25°C for 30 min, and stored at -20°C prior to on-bead digestion
Each experimental condition was performed in
as §1
527 Samples (peptide pull-downs, IPs and high-pH fractionations) were separated on an
528 EASY-nLC 1200 HPLC system (Thermo Fisher Scientific, Waltham, MA, USA) using
529 in-house-packed 50-cm reversed-phase columns (75 cm diameter, 1.9 mm C18 ReproSil
530 particles, Dr. Maisch GmbH) (60°C at 300 nL/min flow rate with an 83 min gradient from […]
536 sec cycle time) (data points per peak = 6). Cycle times were calculated based on the […]

In the case of “GCIKSKGKDSKK [Ac-Lyn, Nt-peptide of Lyn (aa 1–10 + KKK-biotin), Nt-acetylated]”, the “DCAF10 binding (in words)” value in the assay on DCAF10 [1] was “confirmed DCAF10 binding”.
“Lyn^WT-GFP: doxycycline-inducible C-terminally GFP-fused Lyn in DLD-1 Lyn KO cells”: in the assay with CUL4A-DDB1-DCAF10 (Lyn-GFP variants, NMT1/2 siRNA), the “In vitro ubiquitination (in words)” value is “robustly ubiquitinated by the WT E3 complex”. Moreover, the “Increase of in vitro ubiquitination under NMT1/2 siRNA” value with CUL4A-DDB1-DCAF10 is reported as ~ 6 fold; in the assay on CUL4A-DDB1-DCAF10 (listed as LynWT–GFP), above 5 fold. Besides, in the assay on DCAF10 [2], the “Interaction with DCAF10 (in words)” value is “significantly interacted with DCAF10 under both NMT1/2 siRNA and control conditions, with significant enrichment upon NMT1/2 KD”.
